# From ChEMBL document CHEMBL1151044, “5,7-Diphenyl-3-ureidohexahydroazepin-2-ones as Cholecystokinin-B receptor ligands” (Bioorg Med Chem Lett, 1994)
# Target: T1, Cholecystokinin receptor type A (Cavia porcellus, UniProt Q63931)
# T1 sequence (Q63931 whole entry): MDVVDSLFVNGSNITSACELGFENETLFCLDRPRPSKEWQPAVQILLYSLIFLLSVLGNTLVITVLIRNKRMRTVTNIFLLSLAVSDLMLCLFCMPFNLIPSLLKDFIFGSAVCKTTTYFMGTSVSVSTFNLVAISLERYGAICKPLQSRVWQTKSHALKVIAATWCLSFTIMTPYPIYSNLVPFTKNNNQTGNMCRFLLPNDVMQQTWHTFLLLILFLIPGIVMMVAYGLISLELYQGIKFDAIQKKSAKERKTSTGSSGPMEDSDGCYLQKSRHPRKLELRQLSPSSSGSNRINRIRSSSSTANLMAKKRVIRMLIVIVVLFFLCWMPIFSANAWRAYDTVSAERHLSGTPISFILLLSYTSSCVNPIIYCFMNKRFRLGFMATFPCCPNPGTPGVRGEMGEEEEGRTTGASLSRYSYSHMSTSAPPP
# Experiment: Inhibitory activity against cholecystokinin-A (CCK-A) receptor in pancreas of guinea pig.
row,Structure (SMILES),IC50
1,Cc1cccc(NC(=O)N[C@@H]2C[C@H](c3ccccc3)C[C@H](c3cccc(C)c3)N(CC(=O)NC(C)(C)C)C2=O)c1,0.0016 µM
2,Cc1cccc(NC(=O)N[C@@H]2C[C@H](c3cccc(C)c3)C[C@H](c3ccccc3)N(CC(=O)NC(C)(C)C)C2=O)c1,0.0013 µM
3,Cc1cccc(NC(=O)N[C@@H]2C[C@H](c3ccccc3C)C[C@H](c3ccccc3)N(CC(=O)Nc3ccc(Cl)cc3)C2=O)c1,> 0.01 µM
4,Cc1cccc(NC(=O)N[C@@H]2C[C@H](c3ccccc3C)C[C@H](c3ccccc3)N(CC(=O)Nc3ccccc3C)C2=O)c1,0.0011 µM
5,Cc1ccc(NC(=O)CN2C(=O)[C@H](NC(=O)Nc3cccc(C)c3)C[C@H](c3ccccc3C)C[C@@H]2c2ccccc2)cc1,> 0.01 µM
6,Cc1ccc([C@@H]2C[C@H](c3ccccc3)N(CC(=O)NC(C)(C)C)C(=O)[C@H](NC(=O)Nc3cccc(C)c3)C2)cc1,0.0011 µM
7,Cc1cccc(NC(=O)N[C@@H]2C[C@H](c3ccccc3C)C[C@H](c3ccccc3)N(CC(=O)NC(C)C)C2=O)c1,0.56 µM
8,Cc1ccccc1[C@@H]1C[C@H](c2ccccc2)N(CC(=O)NC(C)(C)C)C(=O)[C@H](NC(=O)Nc2cccc(C(F)(F)F)c2)C1,2.5 µM
9,Cc1cccc(NC(=O)N[C@H]2C[C@H](c3ccccc3)C[C@H](c3ccccc3)N(CC(=O)NC(C)(C)C)C2=O)c1,0.01 µM
10,Cc1ccccc1[C@@H]1C[C@H](c2ccccc2)N(CC(=O)NC(C)(C)C)C(=O)[C@H](NC(=O)Nc2cccc([N+](=O)[O-])c2)C1,> 0.01 µM
11,Cc1cccc(NC(=O)N[C@@H]2C[C@H](c3ccccc3)C[C@H](c3cccc(F)c3)N(CC(=O)NC(C)(C)C)C2=O)c1,0.001 µM
12,Cc1cccc(NC(=O)N[C@@H]2C[C@H](c3ccccc3C)C[C@H](c3ccccc3)N(CC(=O)Nc3ccccc3Cl)C2=O)c1,0.0011 µM
13,Cc1cccc(NC(=O)N[C@@H]2C[C@H](c3ccccc3C)C[C@H](c3ccccc3)N(CC(=O)NC(C(C)(C)C)C(C)(C)C)C2=O)c1,> 0.01 µM
14,CCc1cccc(NC(=O)N[C@@H]2C[C@H](c3ccccc3C)C[C@H](c3ccccc3)N(CC(=O)NC3(C)CCCCC3)C2=O)c1,> 0.01 µM
15,Cc1ccccc1[C@@H]1C[C@H](c2ccccc2)N(CC(=O)NC(C)(C)C)C(=O)[C@H](NC(=O)Nc2cccc(F)c2)C1,0.0018 µM
16,Cc1cccc(NC(=O)N[C@@H]2C[C@H](c3ccccc3)C[C@H](c3ccccc3)N(CC(=O)NC(C)(C)C)C2=O)c1,0.823 µM
17,COc1ccc(NC(=O)N[C@@H]2C[C@H](c3ccccc3C)C[C@H](c3ccccc3)N(CC(=O)NC(C)(C)C)C2=O)cc1,0.0022 µM
18,Cc1cccc(NC(=O)N[C@@H]2C[C@H](c3ccccc3C)C[C@H](c3ccccc3)N(CC(=O)NC3(C)CCCCC3)C2=O)c1,0.0044 µM
19,Cc1cccc(NC(=O)N[C@@H]2C[C@H](c3ccccc3)C[C@H](c3ccc(F)cc3)N(CC(=O)NC(C)(C)C)C2=O)c1,0.0028 µM
20,Cc1cccc(NC(=O)N[C@@H]2C[C@H](c3ccccc3C)C[C@H](c3ccccc3)N(CC(=O)Nc3cccc(Cl)c3)C2=O)c1,> 0.01 µM
21,Cc1cccc(NC(=O)N[C@@H]2C[C@H](c3ccc(F)cc3)C[C@H](c3ccccc3)N(CC(=O)NC(C)(C)C)C2=O)c1,0.7 µM
22,Cc1ccc([C@H]2C[C@@H](c3ccccc3)C[C@@H](NC(=O)Nc3cccc(C)c3)C(=O)N2CC(=O)NC(C)(C)C)cc1,0.97 µM
23,CCc1ccccc1[C@@H]1C[C@H](c2ccccc2)N(CC(=O)NC(C)(C)C)C(=O)[C@H](NC(=O)Nc2cccc(C)c2)C1,0.81 µM
24,COc1ccccc1[C@@H]1C[C@H](c2ccccc2)N(CC(=O)NC(C)(C)C)C(=O)[C@H](NC(=O)Nc2cccc(C)c2)C1,0.75 µM
25,Cc1ccccc1[C@@H]1C[C@H](c2ccccc2)N(CC(=O)NC(C)(C)C)C(=O)[C@H](NC(=O)Nc2ccc(Cl)cc2)C1,> 0.01 µM
26,Cc1cccc(NC(=O)N[C@@H]2C[C@H](c3ccccc3C)C[C@H](c3ccccc3)N(CC(=O)NC(C)(C)C)C2=O)c1 (stereo in doubt; 10i),0.58 µM
27,Cc1cccc(NC(=O)N[C@@H]2C[C@H](c3ccccc3C)C[C@H](c3ccccc3)N(CC(=O)NC(C)(C)C)C2=O)c1 (stereo in doubt; (+)-10i),0.61 µM
28,Cc1cccc(NC(=O)N[C@@H]2C[C@H](c3ccccc3C)C[C@H](c3ccccc3)N(CC(=O)NC(C)(C)C)C2=O)c1 (stereo in doubt; (-)-10i),0.93 µM
